Measurements reported in patent publication US20170143608A1, “SKIN COLOR-IMPROVING AGENT AND COMPOSITION FOR IMPROVING SKIN COLOR” (priority 2014, published 2017).

How the values were obtained:
[1] = tested on: UDP-glucuronosyltransferase gene (UGT1A1 gene); experiment: Expression promoting effect on UDP-glucuronosyltransferase gene in NB1-RGB cells (quantitative real-time PCR); format: cell-based, human; settings: for expression promoting effect on UGT1A1 gene compared to dl-α-tocopherol acetate group (in words): compared to the group in which dl-α-tocopherol acetate was added; for Relative gene expression level UGT1A1: final concentration 0.2 μm, 72 hours, standardized to GAPDH, 50% ethanol control = 1.00
Method: (§1) Specifically, the NB1-RGB cells were prepared at a seeding density of 10,000 cells/cm^2, and were cultured for 24 hours in a DMEM medium containing 10% fetal bovine serum. […] In addition, one obtained by adding only 50% ethanol to the medium of cells was used as the control.
(§2) Next, all RNA was extracted from each cell, cDNA was synthesized, quantitative real-time PCR was performed using this cDNA as a template, and the expression levels of the HO-1 gene and UGT1A1 gene were quantified.

[2] = tested on: heme oxygenase gene (HO-1 gene); experiment: Expression promoting effect on heme oxygenase gene in NB1-RGB cells (quantitative real-time PCR); settings: for expression promoting effect on HO-1 gene compared to dl-α-tocopherol acetate group (in words): compared to the group in which dl-α-tocopherol acetate was added; for Relative gene expression level HO-1: final concentration 0.2 μm, 72 hours, standardized to GAPDH, 50% ethanol control = 1.00
Method: as §1, §2

Structure (SMILES)	expression promoting effect on UGT1A1 gene compared to the control (in words) [1]	expression promoting effect on UGT1A1 gene compared to dl-α-tocopherol acetate group (in words) [1]	Relative gene expression level UGT1A1 [1]	expression promoting effect on HO-1 gene compared to the control (in words) [2]	expression promoting effect on HO-1 gene compared to dl-α-tocopherol acetate group (in words) [2]	Relative gene expression level HO-1 [2]
Cc1c(C)c2c(c(C)c1OP(=O)([O-])[O-])CCC(C)(CCCC(C)CCCC(C)CCCC(C)C)O2.[Na+].[Na+] (stereo not drawn) [sodium α-tocopheryl phosphate]	expression promoting effect	higher expression promoting effect	59.11	expression promoting effect	higher expression promoting effect	1.40
Cc1c(OP(=O)([O-])[O-])cc2c(c1C)O[C@](C)(CCC[C@H](C)CCC[C@H](C)CCCC(C)C)CC2.[Na+].[Na+] [sodium γ-tocopheryl phosphate]	expression promoting effect	higher expression promoting effect	42.98	expression promoting effect	higher expression promoting effect	1.21
CC(=O)Oc1c(C)c(C)c2c(c1C)CCC(C)(CCCC(C)CCCC(C)CCCC(C)C)O2 (racemic) [dl-α-tocopherol acetate, reference compound]			34.84			0.97
